Legend:
[1] = target: T1, Oxysterols receptor LXR-alpha (Homo sapiens, UniProt Q13133); assay: Fluorescence-Resonance Energy Transfer Assay; conditions: pH 7.2; 37 °C
T1 sequence (Q13133 whole entry): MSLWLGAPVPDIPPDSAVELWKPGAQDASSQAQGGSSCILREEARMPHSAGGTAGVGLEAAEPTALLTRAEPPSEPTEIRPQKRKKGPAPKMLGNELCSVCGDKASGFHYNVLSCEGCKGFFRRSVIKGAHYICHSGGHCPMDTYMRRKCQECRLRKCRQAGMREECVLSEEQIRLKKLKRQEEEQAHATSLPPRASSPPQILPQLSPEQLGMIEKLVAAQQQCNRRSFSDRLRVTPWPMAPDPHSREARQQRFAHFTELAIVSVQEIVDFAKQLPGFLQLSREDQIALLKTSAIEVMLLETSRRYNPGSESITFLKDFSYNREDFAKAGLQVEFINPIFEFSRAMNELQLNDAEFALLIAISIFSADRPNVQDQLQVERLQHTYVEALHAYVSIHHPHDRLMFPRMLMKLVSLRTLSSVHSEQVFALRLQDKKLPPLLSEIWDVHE
Protocol: (§1) FRET-based co-activator recruitment assay measures agonist activities in a 384-well plate format. Reaction mixture containing His-tagged hLXR, biotinylated SRC-1 peptide, Europiumlabeled anti-His antibody, and allophycocyaninlabeled streptavidin (Prozyme) was prepared. Ligands were tested in 12-point dose-response curves, and FRET was read on an AnalystGT (Molecular Devices).

[2] = target: T2, Oxysterols receptor LXR-beta (Homo sapiens, UniProt P55055); assay: Fluorescence-Resonance Energy Transfer Assay; conditions: pH 7.2; 37 °C
T2 sequence (P55055 whole entry): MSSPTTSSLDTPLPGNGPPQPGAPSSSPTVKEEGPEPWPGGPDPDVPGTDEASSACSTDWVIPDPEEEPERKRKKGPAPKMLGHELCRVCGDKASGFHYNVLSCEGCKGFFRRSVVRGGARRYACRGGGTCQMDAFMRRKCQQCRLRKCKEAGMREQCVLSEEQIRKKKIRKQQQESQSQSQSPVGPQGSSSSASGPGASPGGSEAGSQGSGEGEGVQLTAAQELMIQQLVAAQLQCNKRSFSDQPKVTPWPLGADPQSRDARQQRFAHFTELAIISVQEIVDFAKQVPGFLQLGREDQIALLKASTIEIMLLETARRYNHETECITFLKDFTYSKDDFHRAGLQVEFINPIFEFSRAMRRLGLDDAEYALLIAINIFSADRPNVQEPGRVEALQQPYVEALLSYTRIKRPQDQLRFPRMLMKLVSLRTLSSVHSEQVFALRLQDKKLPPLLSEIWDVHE
Protocol: as §1

[3] = target: T1, Oxysterols receptor LXR-alpha; assay: Scintillation Proximity Assay
Protocol: (§2) SPA assays were run in displacement mode using 30 nM [3H]-GW3965. Ligands were tested in 12-point dose-response curves starting at 20 uM. IC50 values were determined from dose-response and competition curves, which were generated by nonlinear regression analysis using GraphPad Prism.

[4] = target: T2, Oxysterols receptor LXR-beta; assay: Scintillation Proximity Assay
Protocol: as §2

| EC50 [1] [nM] | EC50 [2] [nM] | IC50 [3] [nM] | IC50 [4] [nM] | SMILES |
| --- | --- | --- | --- | --- |
| 400 | 210 |  |  | COc1ncccc1C1SC(c2ccc(F)cc2)=NN1C(=O)c1c(F)cc(F)cc1F (centres undefined) [5-(4-fluorophenyl)-2-(2-methoxypyridin-3-yl)-3-[(2,4,6-trifluorophenyl)carbonyl]-2,3-dihydro-1,3,4-thiadiazole] |
|  |  | 121 | 23 | O=C(O)Cc1cccc(OCCCN(Cc2cccc(C(F)(F)F)c2Cl)CC(c2ccccc2)c2ccccc2)c1 [2-{3-[3-({[2-chloro-3-(trifluoromethyl)phenyl]methyl}(2,2-diphenylethyl)amino)propoxy]phenyl}acetic acid] |
|  |  | 5000 | 66 | COc1cccc([C@H]2SC(c3ccc(Cl)cc3)=NN2C(=O)c2c(F)cc(F)cc2F)c1OC [(2R)-5-(4-chlorophenyl)-2-(2,3-dimethoxyphenyl)-3-[(2,4,6-trifluorophenyl)carbonyl]-2,3-dihydro-1,3,4-thiadiazole] |
|  | 300 | 9800 | 300 | COc1cccc(C2SC(c3ccc(Cl)cc3)=NN2C(=O)c2c(F)cc(F)cc2F)c1OC (racemic) [5-(4-chlorophenyl)-2-(2,3-dimethoxyphenyl)-3-[(2,4,6-trifluorophenyl)carbonyl]-2,3-dihydro-1,3,4-thiadiazole] |
